Experimental findings from patent US6476076B1 (priority 1999, dated 2002) are described below.

“And” between values parts separate entries of the source, which are not always exact repeats. Identical values can stand only once. Like-named read-outs stand apart in the source and are kept apart here.

Data set [1] concerns PBQ-induced writhing in ICR mice. Description: animal or person. The note with it: for Relative Potency (Writhing Test) / Writhing Test ED50: mouse, in vivo; for Writhing Test ED50 / ED50: ip; for ED50: Mus musculus, read-out: Writhing Test ED50. The format is in vivo, mouse.
For data set [2], the target named is T1, vanilloid receptor (rat spinal cord membrane preparations) (Rattus norvegicus, UniProt O35433).
T1 construct: determined on membrane preparations from rat spinal cord; from tissue; host or cells: rat spinal cord membranes
In words: biochemical. The format is binding.

Data set [3] has as its target T2, CAP-activated channels in cultured neonatal rat dorsal root ganglion (DRG) neurons (Rattus norvegicus, UniProt O35433).
T2 construct: extracellular application of the compounds to cultured neonatal rat dorsal root ganglion (DRG) neurons; endogenous in cells; host or cells: primary cultured DRG neurons from 1 or 2 day old neonatal rats
It is filed as cell-based. On the set-up: key: + = CAP; ++ = 10 CAP; +++ = 100 CAP.

Data set [4] deals with TPA-induced ear edema in ICR mice. Particulars: mouse, in vivo.
The subject of data set [5] is rat eye (eye-wiping response). The note with it: in vivo.
Data set [6] has as its system acetic acid-induced writhing in ICR mice. In words: animal or person. The format is in vivo, mouse. Particulars: for ED50: Mus musculus, ip, read-out: Writhing Test ED50.
The next data set deals with DRG neurons. Description: cells. The format is cell-based. Particulars: Rattus norvegicus, DRG neuron, 10 min, read-out: 45Ca Influx EC50.

T1 sequence (O35433 whole entry): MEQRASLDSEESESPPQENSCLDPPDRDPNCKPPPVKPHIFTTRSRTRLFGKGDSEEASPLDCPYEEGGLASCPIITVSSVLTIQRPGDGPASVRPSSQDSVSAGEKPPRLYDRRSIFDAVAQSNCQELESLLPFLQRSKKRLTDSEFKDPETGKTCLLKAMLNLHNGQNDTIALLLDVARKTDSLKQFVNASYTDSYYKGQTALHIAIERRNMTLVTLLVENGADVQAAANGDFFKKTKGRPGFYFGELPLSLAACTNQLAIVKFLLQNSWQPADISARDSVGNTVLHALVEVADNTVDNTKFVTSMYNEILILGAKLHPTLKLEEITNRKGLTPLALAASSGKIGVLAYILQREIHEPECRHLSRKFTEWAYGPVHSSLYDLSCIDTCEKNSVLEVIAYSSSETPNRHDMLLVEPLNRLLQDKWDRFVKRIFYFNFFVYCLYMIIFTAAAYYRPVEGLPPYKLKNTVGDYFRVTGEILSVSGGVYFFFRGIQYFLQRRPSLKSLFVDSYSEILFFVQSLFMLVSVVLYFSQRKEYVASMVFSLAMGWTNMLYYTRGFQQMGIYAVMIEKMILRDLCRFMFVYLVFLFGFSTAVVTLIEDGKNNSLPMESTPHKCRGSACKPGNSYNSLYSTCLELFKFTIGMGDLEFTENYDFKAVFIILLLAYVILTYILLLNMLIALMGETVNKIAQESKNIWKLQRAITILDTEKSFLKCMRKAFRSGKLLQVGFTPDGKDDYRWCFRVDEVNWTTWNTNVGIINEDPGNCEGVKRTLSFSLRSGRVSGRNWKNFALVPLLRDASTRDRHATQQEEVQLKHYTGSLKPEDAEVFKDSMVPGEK
T2 sequence (O35433 whole entry): as above

Regarding “2-(3,4-Dimethylbenzyl)-3-{[(4-hydroxy-3-methoxybenzyl)amino]carbothioyl}propyl 3,4-Dimethylbenzoate [7b-VI]”, in data set [1], the “Relative Potency (Writhing Test)” value is listed as 150 and the “Writhing Test ED50” value came to 0.002 mg/kg. Moreover, in data set [2] (read-out: Affinities (Ki)), the Ki turned out to be 184 nM. Besides, the Activations entry in data set [3] is given as “+++”. In addition, in data set [4], the “Ear Edema Assay ID50” value is listed as 50 μg/ear and the “Relative Potency (Ear Edema Assay)” value came out at 0.06.

On to “2-(3,4-Dimethylbenzyl)-3-{[(4-hydroxy-3-methoxybenzyl)amino]carbothioyl}propyl Pivalate [7b-I]”, for which, in data set [1], the “Relative Potency (Writhing Test)” value amounted to 600 and the “Writhing Test ED50” value turned out to be 0.0005 mg/kg. In data set [2], the “times more potent than CAP (receptor binding)” value is listed as “ca. 280 times”. For the same molecule, in data set [3], the Activations result is given as “++”. Also, in data set [5], the “MPP: moderate pain-producing potency” value was 0.002% and the “RPP: relative pain-producing potency” value stood at 15. Moreover, in data set [4], the “Ear Edema Assay ID50” value stood at 18 μg/ear and the “Relative Potency (Ear Edema Assay)” value came out at 0.17.

For the molecule “2-(3,4-Dimethylbenzyl)-3-{[(4-hydroxy-3-methoxybenzyl)amino]carbothioyl}propyl benzoate [7b-V]”, in data set [1], the “Relative Potency (Writhing Test)” value is 43 and the “Writhing Test ED50” value was 0.007 mg/kg. Also, the Ki in data set [2] (read-out: Affinities (Ki)) is 409 nM. Further, in data set [3], the Activations result was “++”. In addition, in data set [4], the “Ear Edema Assay ID50” value is 50 μg/ear and the “Relative Potency (Ear Edema Assay)” value stood at 0.06.

As to “2-(4-Chlorobenzyl)-3-{[(4-hydroxy-3-methoxybenzyl)amino]carbothioyl}propyl Pivalate [7c-I]”, in data set [1], the “Relative Potency (Writhing Test)” value came out at 60 and the “Writhing Test ED50” value turned out to be 0.005 mg/kg. The inhibition constant Ki in data set [2] (read-out: Affinities (Ki)) is 54.4 nM. Besides, the Activations entry in data set [3] is on record as “++”. In addition, in data set [4], the “Ear Edema Assay ID50” value came to 22 μg/ear and the “Relative Potency (Ear Edema Assay)” value is 0.14.

“2-(4-t-Butylbenzyl)-3-{[(4-hydroxy-3-methoxybenzyl)amino]carbothioyl}propyl Benzoate [7d-V]”: in data set [1], the “Relative Potency (Writhing Test)” value is listed as 200 and the “Writhing Test ED50” value amounted to 0.0015 mg/kg. In addition, in data set [2] (read-out: Affinities (Ki)), the Ki is 60.2 nM. Further, the Activations entry in data set [3] was “++”. Moreover, in data set [4], the “Ear Edema Assay ID50” value is 30 μg/ear and the “Relative Potency (Ear Edema Assay)” value came out at 0.1.

Consider “2-(4-t-Butylbenzyl)-3-{[(4-hydroxy-3-methoxybenzyl)amino]carbothioyl}propyl Pivalate [7d-I]”, for which, in data set [1], the “Relative Potency (Writhing Test)” value came out at 300 and the “Writhing Test ED50” value is 0.001 mg/kg. The “times more potent than CAP (receptor binding)” value in data set [2] is recorded as approximately 490 times. The Activations result in data set [3] was “++”. In data set [5], the “% Reduction of response to 0.001% capsaicin” value (from here on “% Reduction of response”) was 0 (0.1) %, the “MPP: moderate pain-producing potency” value was determined as 0.003% and the “RPP: relative pain-producing potency” value is recorded as 10. Moreover, in data set [4], the “Ear Edema Assay ID50” value is reported as 5 μg/ear and the “Relative Potency (Ear Edema Assay)” value was found to be 0.6.

In the case of `COc1cc(CNC(=S)NCC(COC(=O)C(C)(C)C)Cc2ccc(C)c(C)c2)ccc1OCC(=O)O` (stereo not drawn) [19a, 2,2-Dimethyl-propionic Acid 2-[3-(4-Carboxymethoxy-3-methoxy-benzyl)-thioureidomethyl]-3-(3,4-dimethyl-phenyl)-propyl Ester], in data set [6], the ED50 was found to be 0.431 mg/kg. Further, in the data set with DRG neurons, the EC50 came out at 7770 ± 800 nM.

Regarding `COc1cc(CNC(=S)NCC(COC(=O)C(C)(C)C)Cc2ccc(C(C)(C)C)cc2)ccc1OCC(=O)O` (stereo not drawn) [19b, 2,2-Dimethyl-propionic Acid 3-(4-t-Butyl-phenyl)-2-[3-(4-carboxymethoxy-3-methoxy-benzyl)-thioureidomethyl]-propyl Ester], in data set [6], the ED50 amounted to 0.365 mg/kg. The EC50 with DRG neurons turned out to be 12300 ± 1580 nM.

Consider `COc1cc(CNC(=S)NCC(COC(=O)C(C)(C)C)Cc2ccc(C)c(C)c2)ccc1OC(=O)CCC(=O)O` (stereo not drawn) [23a, Succinic Acid Mono-(4-{3-[3-(3,4-dimethyl-phenyl)-2-(2,2-dimethyl-propionyloxymethyl)-propyl]-thioureidomethyl}-2-methoxy-phenyl) Ester], for which, in data set [6], the ED50 worked out at 0.0531 mg/kg. Besides, in the data set on DRG neurons, the EC50 worked out at 7040 ± 1300 nM.

`COc1cc(CNC(=S)NCC(COC(=O)C(C)(C)C)Cc2ccc(C(C)(C)C)cc2)ccc1OC(=O)CCC(=O)O` (stereo not drawn) [23b, Succinic Acid Mono-(4-{3-[3-(4-t-butyl-phenyl)-2-(2,2-dimethylpropionyloxymethyl)-propyl]-thioureidomethyl}-2-methoxy-phenyl) Ester]: the ED50 in data set [6] was 0.06 mg/kg. The EC50 with DRG neurons worked out at 7000 ± 1200 nM.

For the molecule `COc1cc(CC(=O)NCC(COC(=O)C(C)(C)C)Cc2ccc(C)c(C)c2)ccc1OCCN` (stereo not drawn) [28a, 2,2-Dimethyl Propionic Acid 2-({2-[4-(2-Aminoethoxy)-3-methoxyphenyl]acetylamino}methyl)-3-(3,4-dimethylphenyl)propyl Ester], the ED50 in data set [6] is 0.00096 mg/kg. The “analgesic activity (in words)” value in data set [6] (mouse, in vivo) is “the most potent one and more potent than DA-5018”. Further, the EC50 in the data set with DRG neurons is 1570 ± 230 nM.

In the case of `COc1cc(CC(=O)NCC(COC(=O)C(C)(C)C)Cc2ccc(C(C)(C)C)cc2)ccc1OCCN` (stereo not drawn) [28b, 2,2-Dimethyl Propionic Acid 2-({2-[4-(2-Aminoethoxy)-3-methoxyphenyl]acetylamino}methyl)-3-(4-t-butylphenyl)propyl Ester], in data set [6], the median effective dose (ED50) amounted to 0.00812 mg/kg. In the data set on DRG neurons, the EC50 was determined as 878 ± 170 nM.

For the molecule `COc1cc(CNC(=S)NCC(COC(=O)C(C)(C)C)Cc2ccc(C)c(C)c2)ccc1OCCN` (stereo not drawn) [36a, 2,2-Dimethyl Propionic Acid 2-{3-[4-(2-Aminoethoxy)-3-methoxybenzyl]thioureido Methyl}-3-(3,4-dimethylphenyl)propyl Ester], the ED50 in data set [6] worked out at 0.014 mg/kg. Moreover, the EC50 in the data set on DRG neurons is 83 ± 12 nM.

In the case of `COc1cc(CNC(=S)NCC(COC(=O)C(C)(C)C)Cc2ccc(C(C)(C)C)cc2)ccc1OCCN` (stereo not drawn) [36b, 2,2-Dimethyl Propionic Acid 2-{3-[4-(2-Aminoethoxy)-3-methoxybenzyl]thioureido Methyl}-3-(4-t-butylphenyl)propyl Ester], the ED50 in data set [6] is 0.0482 mg/kg. In addition, the EC50 in the data set on DRG neurons is 377 ± 67 nM.

As to `COc1cc(CNC(=S)NC[C@H](COC(=O)C(C)(C)C)Cc2ccccc2)ccc1O` [(R)-7a-I], in data set [1], the ED50 was 0.008 mg/kg and the “Relative Potency (Writhing Test)” value came out at 38. In data set [2], this molecule registered a Ki of 18.4 nM. Besides, in data set [3], the Activations result is “+++”.

Turning to `COc1cc(CNC(=O)CCCC/C=C/C(C)C)ccc1O` [Capsaicin, reference compound], in data set [1], the ED50 stood at 0.3 mg/kg. For the same molecule, in data set [5], the “% Reduction of response” value is 55 (0.1) % and 35 (0.01) %; the “MPP: moderate pain-producing potency” value is reported as 0.0003%; the “response to 0.001% CAP challenge 6 h posttreatment (in words)” value was “attenuated eye-wiping response”. In data set [4], the “Ear Edema Assay ID50” value stood at 3 μg/ear and the “antiinflammatory activity in the TPA ear edema assay (in words)” value (“antiinflammatory activity” below) is listed as “strong anti-edema activity”. Besides, the EC50 in the data set on DRG neurons turned out to be 435 nM.

With `COc1cc(CC(=O)NCCCc2ccc(C)c(C)c2)ccc1OCCN` [DA-5018, 2-[4-(2-aminoethoxy)-3-methoxyphenyl]-N-[3-(3,4-dimethylphenyl)propyl]acetamide, reference compound], in data set [1], the 50% effective dose (ED50) is 0.003 mg/kg and the “Relative Potency (Writhing Test)” value is on record as 100. Besides, in data set [5], the “MPP: moderate pain-producing potency” value turned out to be 0.003% and the “RPP: relative pain-producing potency” value stood at 10. The ED50 in data set [6] came out at 0.00227 mg/kg. Moreover, in data set [4], the “Ear Edema Assay ID50” value is 200 μg/ear, the “Relative Potency (Ear Edema Assay)” value was 0.015 and the “antiinflammatory activity” value was “weak topical activity”. In addition, the EC50 in the data set on DRG neurons came to 234 nM.

As for `CCCCCCCC/C=C\CCCCCCCC(=O)NCc1ccc(O)c(OC)c1` [Olvanil, reference compound], in data set [1], the ED50 came to 0.03 mg/kg and the “Relative Potency (Writhing Test)” value stood at 10. Also, in data set [5], the “% Reduction of response” value was 0.1% and the “MPP: moderate pain-producing potency” value is “WP^c”. The ED50 in data set [6] was found to be 0.0174 mg/kg. Further, in data set [4], the “Ear Edema Assay ID50” value came to 30 μg/ear, the “Relative Potency (Ear Edema Assay)” value was determined as 0.1 and the “antiinflammatory activity” value is reported as “weak topical activity”.

Turning to `C=C(C)[C@]12C[C@@H](C)[C@@]34O[C@](Cc5ccccc5)(O[C@@H]1[C@@H]3C=C(COC(=O)Cc1ccc(O)c(OC)c1)C[C@]1(O)C(=O)C(C)=C[C@@H]41)O2` [RTX, Resiniferatoxin, reference compound], the “Relative Potency (Writhing Test)” value in data set [1] was 30,000. For the same molecule, the Ki in data set [2] was determined as 0.023 nM. In addition, in data set [5], the “MPP: moderate pain-producing potency” value was 0.0001%; the “RPP: relative pain-producing potency” value came out at 300; the “pungency, fold more potent than CAP” value was 3 fold. Further, in data set [4], the “Ear Edema Assay ID50” value is recorded as 0.002 μg/ear and the “Relative Potency (Ear Edema Assay)” value was 1,500.
